# Reference: the supplement of paper PMC6045584
# ± gives the standard deviation of the averaged measurements.
# Assays:
# Experiment in all cases: surviving fraction relative to DMSO-only wells; higher = less growth inhibition
# Conditions in all cases: exposure time: 5 days
# ERLOTINIB = compound: C#Cc1cccc(Nc2ncnc3cc(OCCOC)c(OCCOC)cc23)c1 [ERLOTINIB]
# Procedure, shortened: (§1)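 In 384-well plates, 250–500 log-phase tumour cells per well were given 24 hours before five days of continuous exposure to inhibitors at 0.5, 1, 5, 10, 50, 100, 500 and 1000 nM. Surviving fraction is luminescence from CellTiter-Glo, normalised to the median of wells containing DMSO alone. Reading took place after 10 minutes at room temperature.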
# VINORELBINE = compound: CCC1=C[C@@H]2CN(C1)Cc1c([nH]c3ccccc13)[C@@](C(=O)OC)(c1cc3c(cc1OC)N(C)[C@H]1[C@@](O)(C(=O)OC)[C@H](OC(C)=O)[C@]4(CC)C=CCN5CC[C@]31[C@@H]54)C2 [VINORELBINE]
# Procedure, shortened: as §1
# PLX-4720 = compound: CCCS(=O)(=O)Nc1ccc(F)c(C(=O)c2c[nH]c3ncc(Cl)cc23)c1F [PLX-4720]
# Procedure, shortened: as §1
# SUNITINIB = compound: CCN(CC)CCNC(=O)c1c(C)[nH]c(/C=C2\C(=O)Nc3ccc(F)cc32)c1C [SUNITINIB]
# Procedure, shortened: as §1
# METHOTREXATE = compound: CN(Cc1cnc2nc(N)nc(N)c2n1)c1ccc(C(=O)N[C@@H](CCC(=O)O)C(=O)O)cc1 [METHOTREXATE]
# Procedure, shortened: as §1
# EVEROLIMUS = compound: CO[C@H]1C[C@@H]2CC[C@@H](C)[C@@](O)(O2)C(=O)C(=O)N2CCCC[C@H]2C(=O)O[C@H]([C@H](C)C[C@@H]2CC[C@@H](OCCO)[C@H](OC)C2)CC(=O)[C@H](C)/C=C(\C)[C@@H](O)[C@@H](OC)C(=O)[C@H](C)C[C@H](C)/C=C/C=C/C=C/1C [EVEROLIMUS]
# Procedure, shortened: as §1
# AZD4547 = compound: COc1cc(CCc2cc(NC(=O)c3ccc(N4CC(C)NC(C)C4)cc3)n[nH]2)cc(OC)c1 [AZD4547]
# Procedure, shortened: as §1
# ETOPOSIDE = compound: COc1cc([C@@H]2c3cc4c(cc3[C@@H](O[C@@H]3O[C@@H]5CO[C@@H](C)O[C@H]5[C@H](O)[C@H]3O)[C@H]3COC(=O)[C@H]23)OCO4)cc(OC)c1O [ETOPOSIDE]
# Procedure, shortened: as §1
# [1] = compound: Cc1nc(Nc2n[nH]c3c2CN(C(=O)N[C@H](CN(C)C)c2ccccc2)C3(C)C)c2sccc2n1
# Procedure, shortened: as §1
# MK2206 = compound: NC1(c2ccc(-c3nc4ccn5c(=O)[nH]nc5c4cc3-c3ccccc3)cc2)CCC1 [MK2206]
# Procedure, shortened: as §1
# [2] = compound: O=C(NOCC1CC1)c1ccc(F)c(F)c1Nc1ccc(I)cc1Cl
# Procedure, shortened: as §1
# MK0752 = compound: O=C(O)CC[C@H]1CC[C@@](c2cc(F)ccc2F)(S(=O)(=O)c2ccc(Cl)cc2)CC1 [MK0752]
# Procedure, shortened: as §1
test system,measurement,setting,value
HS57T BREAST,surviving fraction,ERLOTINIB; 0.5 nM,1.03 ± 0.086
same,surviving fraction,ERLOTINIB; 1 nM,1.02 ± 0.071
same,surviving fraction,ERLOTINIB; 5 nM,1.06 ± 0.046
same,surviving fraction,ERLOTINIB; 10 nM,1.1 ± 0.052
same,surviving fraction,ERLOTINIB; 100 nM,1.04 ± 0.074
same,surviving fraction,ERLOTINIB; 500 nM,0.999 ± 0.046
same,surviving fraction,ERLOTINIB; 1000 nM,0.971 ± 0.074
same,surviving fraction,VINORELBINE; 0.5 nM,1.01 ± 0.08
same,surviving fraction,VINORELBINE; 1 nM,0.957 ± 0.03
same,surviving fraction,VINORELBINE; 5 nM,0.682 ± 0.0066
same,surviving fraction,VINORELBINE; 10 nM,0.118 ± 0.011
same,surviving fraction,VINORELBINE; 50 nM,0.07 ± 0.002
same,surviving fraction,VINORELBINE; 100 nM,0.0703 ± 0.013
same,surviving fraction,VINORELBINE; 500 nM,0.0633 ± 0.0096
same,surviving fraction,VINORELBINE; 1000 nM,0.0723 ± 0.0084
same,surviving fraction,PLX-4720; 0.5 nM,0.9 ± 0.06
same,surviving fraction,PLX-4720; 1 nM,0.898 ± 0.057
same,surviving fraction,PLX-4720; 5 nM,0.947 ± 0.069
same,surviving fraction,PLX-4720; 10 nM,0.964 ± 0.065
same,surviving fraction,PLX-4720; 50 nM,0.921 ± 0.059
same,surviving fraction,PLX-4720; 100 nM,0.982 ± 0.03
same,surviving fraction,PLX-4720; 500 nM,0.92 ± 0.019
same,surviving fraction,PLX-4720; 1000 nM,0.962 ± 0.054
same,surviving fraction,SUNITINIB; 0.5 nM,0.9 ± 0.077
same,surviving fraction,SUNITINIB; 1 nM,0.867 ± 0.027
same,surviving fraction,SUNITINIB; 10 nM,0.919 ± 0.095
same,surviving fraction,SUNITINIB; 100 nM,0.863 ± 0.011
same,surviving fraction,SUNITINIB; 500 nM,0.572 ± 0.035
same,surviving fraction,SUNITINIB; 1000 nM,0.406 ± 0.027
same,surviving fraction,METHOTREXATE; 0.5 nM,1 ± 0.11
same,surviving fraction,METHOTREXATE; 1 nM,1.03 ± 0.075
same,surviving fraction,METHOTREXATE; 5 nM,1.03 ± 0.032
same,surviving fraction,METHOTREXATE; 10 nM,0.985 ± 0.12
same,surviving fraction,METHOTREXATE; 50 nM,0.252 ± 0.025
same,surviving fraction,METHOTREXATE; 100 nM,0.226 ± 0.013
same,surviving fraction,METHOTREXATE; 500 nM,0.205 ± 0.018
same,surviving fraction,METHOTREXATE; 1000 nM,0.214 ± 0.0081
same,surviving fraction,EVEROLIMUS; 0.5 nM,0.614 ± 0.029
same,surviving fraction,EVEROLIMUS; 1 nM,0.535 ± 0.0078
same,surviving fraction,EVEROLIMUS; 5 nM,0.497 ± 0.031
same,surviving fraction,EVEROLIMUS; 10 nM,0.445 ± 0.016
same,surviving fraction,EVEROLIMUS; 50 nM,0.447 ± 0.024
same,surviving fraction,EVEROLIMUS; 100 nM,0.44 ± 0.042
same,surviving fraction,EVEROLIMUS; 500 nM,0.373 ± 0.024
same,surviving fraction,EVEROLIMUS; 1000 nM,0.387 ± 0.045
same,surviving fraction,AZD4547; 0.5 nM,1.02 ± 0.051
same,surviving fraction,AZD4547; 1 nM,1.01 ± 0.031
same,surviving fraction,AZD4547; 5 nM,0.938 ± 0.04
same,surviving fraction,AZD4547; 10 nM,0.829 ± 0.05
same,surviving fraction,AZD4547; 50 nM,0.687 ± 0.029
same,surviving fraction,AZD4547; 100 nM,0.744 ± 0.043
same,surviving fraction,AZD4547; 500 nM,0.679 ± 0.035
same,surviving fraction,AZD4547; 1000 nM,0.628 ± 0.045
same,surviving fraction,ETOPOSIDE; 0.5 nM,1.02 ± 0.016
same,surviving fraction,ETOPOSIDE; 1 nM,0.967 ± 0.049
same,surviving fraction,ETOPOSIDE; 5 nM,1.01 ± 0.02
same,surviving fraction,ETOPOSIDE; 10 nM,1.06 ± 0.069
same,surviving fraction,ETOPOSIDE; 50 nM,1.09 ± 0.055
same,surviving fraction,ETOPOSIDE; 100 nM,0.909 ± 0.06
same,surviving fraction,ETOPOSIDE; 500 nM,0.409 ± 0.048
same,surviving fraction,ETOPOSIDE; 1000 nM,0.288 ± 0.017
same,surviving fraction,[1]; 0.5 nM,0.895 ± 0.062
same,surviving fraction,[1]; 1 nM,0.685 ± 0.022
same,surviving fraction,[1]; 5 nM,0.366 ± 0.02
same,surviving fraction,[1]; 10 nM,0.305 ± 0.019
same,surviving fraction,[1]; 50 nM,0.287 ± 0.018
same,surviving fraction,[1]; 100 nM,0.255 ± 0.0075
same,surviving fraction,[1]; 500 nM,0.151 ± 0.02
same,surviving fraction,[1]; 1000 nM,0.0643 ± 0.0085
same,surviving fraction,MK2206; 0.5 nM,0.979 ± 0.037
same,surviving fraction,MK2206; 1 nM,1 ± 0.07
same,surviving fraction,MK2206; 5 nM,1.02 ± 0.051
same,surviving fraction,MK2206; 10 nM,1.07 ± 0.056
same,surviving fraction,MK2206; 50 nM,0.962 ± 0.013
same,surviving fraction,MK2206; 100 nM,0.938 ± 0.05
same,surviving fraction,MK2206; 500 nM,0.747 ± 0.012
same,surviving fraction,MK2206; 1000 nM,0.658 ± 0.092
same,surviving fraction,[2]; 0.5 nM,0.909 ± 0.02
same,surviving fraction,[2]; 1 nM,0.945 ± 0.022
same,surviving fraction,[2]; 5 nM,0.933 ± 0.056
same,surviving fraction,[2]; 10 nM,0.965 ± 0.033
same,surviving fraction,[2]; 50 nM,0.824 ± 0.025
same,surviving fraction,[2]; 100 nM,0.815 ± 0.013
same,surviving fraction,[2]; 500 nM,0.676 ± 0.021
same,surviving fraction,[2]; 1000 nM,0.686 ± 0.019
same,surviving fraction,MK0752; 0.5 nM,1.09 ± 0.048
same,surviving fraction,MK0752; 1 nM,1.09 ± 0.059
same,surviving fraction,MK0752; 5 nM,1.18 ± 0.061
same,surviving fraction,MK0752; 10 nM,1.14 ± 0.1
same,surviving fraction,MK0752; 50 nM,1.13 ± 0.048
same,surviving fraction,MK0752; 100 nM,1.19 ± 0.077
same,surviving fraction,MK0752; 500 nM,1.02 ± 0.038
same,surviving fraction,MK0752; 1000 nM,1.01 ± 0.046
